Literature values, collected in paper PMC5510229, “BCAT1 controls metabolic reprogramming in activated human macrophages and is associated with inflammatory diseases” (Nature Communications, 2017).

What was measured:
[1] = tested on: a2δ−1 and a2δ−2 subunits of voltage-activated calcium channels; design: method as in PMID 19128880; settings: cited from earlier work
[2] = design: method as in PMID 10381778; settings: cited from earlier work

## NCC1(CC(=O)O)CCCCC1 [gabapentin]
[1]
  binding affinity: high affinity
[2]
  anti-inflammatory effects: no apparent anti-inflammatory effects
